{"source": "patent US5650442A", "about": "(priority 1994, dated 1997)", "key": {"[1]": {"test_system": "Chinese hamster V79 lung fibroblasts", "test": "Cytotoxicity of the agents alone to V79 cells, clonogenic assay", "details": "no radiation", "experimental": "(§1) Chinese hamster V79 lung fibroblasts were cultured in F12 medium supplemented with 10% fetal calf serum and antibiotics. […] The assay system was specifically designed to evaluate radiation sensitivity of cells exposed to radiation under both aerobic and hypoxic conditions (Mitchell et al., Radiat. Res., 96, 422-428 (1983); Russo et al., Radiat. Res., 103, 232-239 (1985); and DeGraff et al., Int. J. Radiat. Oncol. Biol. Phys., 16, 1021-1024 (1989)).\n(§2) When cultured cells were exposed to DEA/NO in subsequent examples, DEA/NO in F12 medium with 10 mM HEPES buffer, pH 7.0, was used. […] Control cells in subsequent examples were exposed to 0.02N NaOH, instead of DEA/NO.\nRadiation survival curves for V79 cells exposed to varying concentrations of DEA/NO and various DEA/NO decomposition products under hypoxic conditions (metabolic hypoxia induction) are shown in FIG. 1A, which is a graph of the surviving fraction versus dose (Gy). Lines in FIG. 1A represent control (.circle-solid.) and 0.1 mM (Δ), 0.5 mM (.largecircle.), 1.0 mM (.quadrature.), and 2.0 mM (.box-solid.) DEA/NO. Survival curves were corrected for drug cytotoxicity as appropriate.\nDEA/NO (2.0 mM) was allowed to decompose to liberate NO in medium maintained at 37° C. overnight in a flask open to the air for use as an additional control. The medium containing the DEA/NO decomposition products was then used to evaluate possible effects on radiosensitization."}, "[2]": {"test_system": "Chinese hamster V79 lung fibroblasts", "test": "Radiation survival of aerobic V79 cells, clonogenic assay", "assay_type": "cell-based", "experimental": "as §1, §2\nFollowing irradiation, the various cell suspensions were pipetted, counted, diluted, and plated for macroscopic colony formation. Each dose determination was plated in triplicate and experiments were repeated a minimum of two times. Plates were incubated for seven days, after which colonies were fixed with methanol/acetic acid (3:1), stained with crystal violet, and counted. Colonies containing >50 cells were scored and graphed as FIGS. 1-3. Error bars in the graphs represent the standard deviation of the mean and are shown when larger than the symbol used to designate a data point. Survival curve data were fitted using a linear quadratic model of Albright (Radiat. Res., 112, 331-340 (1987)), and the survival curves shown in the figures represent the best fit curves for the experimental data points. Sensitizer enhancement ratios (SER) were calculated by dividing the radiation dose for control hypoxic conditions by the radiation dose for various agents under hypoxic conditions at the 1% surviving fraction level."}, "[3]": {"test_system": "KHT tumors", "test": "In vivo radiosensitization of KHT tumors (regrowth delay)", "design": "species or system C3H mice", "experimental": "This murine model is one which is routinely used to test hypoxic radiosensitizers. In fact, results obtained with this model were used as a basis for initiating clinical trials of nitroimidazoles as radiation sensitizers in the early to mid-1970's.\nC3H mice with hind leg implants of KHT tumors were exposed to radiation. When the tumors had grown to 8 mm in circumference, the mice were treated with DEA/NO alone (control), 15 cGy directed at the tumor, or DEA/NO given 30 minutes before tumor irradiation with 15 cGy (DEA/NO (30 min)). The mice experienced a tumor regrowth delay of one day after treatment of the tumor with 15 cGy."}, "[4]": {"test_system": "C3H mice", "test": "Protection of mice from whole body irradiation", "assay_type": "in vivo", "details": "for Percent survival of mice at 30 days: 1100 cGy", "source_text": "Female C3H mice were obtained from the Frederick Cancer Research Center--Animal Production in Frederick, Md. C3H mice have been used in whole body irradiation studies since 1948 (Patt, et al., Science, 110, 213-214 (1949)) and are considered to serve as good models for predicting the effects of radiation in humans.\nC3H mice were received at six weeks of age and were housed five per cage in climate-controlled, circadian rhythm-adjusted rooms and allowed food and water ad libitum. The animals were 60-80 days old at the time of radiation. A total of 10-15 mice were used per radiation dose. Mice were weighed in groups of five. The weights of each group ranged from 110 grams to 135 grams or an average weight of 22-27 grams per mouse.\nIn all experiments drugs and diluent (in control mice) were injected intraperitoneally into mice in volumes equivalent to 1% of each animal's weight (0.22 to 0.27 ml). Groups of 5-10 mice were placed in round (30.5 cm diameter and 10.5 cm height) Plexiglas containers with holes for ventilation for irradiation. The irradiator was calibrated with thermoluminescent dosimetry chips planted in phantom mice, and the radiation dose was determined according to previously described methodology (Cameron et al., \"Thermoluminescent Dosimetry\" (Univ. of Wisconsin Press, Madison, Wis., 1968)). The dose rate used was 1 Gy/min. Total time of irradiation varied as a function of the dose delivered. Immediately after irradiation, the mice were separated into groups of five and returned to climate-controlled cages for observation. The mice were assessed daily for survival.\nThe results are shown in FIG. 7, which is a graph of percent surviving versus days after irradiation with 11 Gy for control mice (.box-solid., n=10), which were injected with saline, mice treated with DEA/NO 10 minutes prior to irradiation (.largecircle., n=15), and mice treated with DEA/NO 30 minutes prior to irradiation (.circle-solid., n=15)."}, "[5]": {"test_system": "Female C3H mice", "test": "Protection of mice against melphalan toxicity", "assay_type": "in vivo", "details": "70 mg/kg DEA/NO, i.p.", "experimental": "Female C3H mice were injected intraperitoneally with varying doses of melphalan alone or melphalan with 70 mg/kg DEA/NO. The methods employed were adaptations of the methods used in Examples 9 and 11.\nFIG. 16 is a graph of % survival of animals versus does of melphalan (mg/kg) showing the chemotherapy survival curves for mice exposed to melphalan in the absence or presence of DEA/NO. […] DEA/NO provided approximately a 1.2 protection factor at the 50% survival level."}, "[6]": {"test_system": "Chinese hamster V79 lung fibroblasts", "test": "Radiation survival of hypoxic V79 cells (metabolism-mediated oxygen depletion), clonogenic assay, SER", "assay_type": "cell-based", "details": "0.05 mM, 1% surviving fraction level"}, "[7]": {"test_system": "Chinese hamster V79 fibroblasts", "test": "Chemosensitization of V79 cells to bioreductive agents (mitomycin C, SR 4233)"}}}
{"smiles": "CCN(CC)/[N+]([O-])=N/[O-].[Na+]", "note": "[DEA/NO]", "values": [{"measurement": "cytotoxicity of treatment alone", "setting": "[1]; 2 mM", "result": "minimal cytotoxicity"}, {"measurement": "cytotoxicity of treatment alone", "setting": "[1]; 0.1-1.0 mM", "result": "not cytotoxic"}, {"measurement": "enhancement of aerobic radiosensitivity at the 1% survival level", "setting": "[2]; 2.0 mM", "result": 1.3}, {"measurement": "effect on aerobic radiosensitivity", "setting": "[2]; 0.5 and 1.0 mM", "result": "had no effect on aerobic radiosensitivity"}, {"measurement": "tumor regrowth delay", "setting": "[3]; 80 mg/kg 30 min before 15 cGy tumor irradiation", "result": 8, "unit": "days"}, {"measurement": "survival with no evidence of tumor", "setting": "[3]; DEA/NO (30 min) group, 15 cGy", "result": "Two animals in the DEA/NO (30 min) group survived for at least four weeks with no evidence of tumor"}, {"measurement": "tumors eradicated", "setting": "[3]; DEA/NO before 15 cGy, n=14", "result": 14, "unit": "%"}, {"measurement": "protection from whole body irradiation", "setting": "[4]; 80 mg/kg i.p. before irradiation", "result": "protected mice from whole-body irradiation"}, {"measurement": "Percent survival of mice at 30 days", "setting": "[4]; 80 mg/kg i.p. 10 min before", "result": 44, "unit": "%"}, {"measurement": "Percent survival of mice at 30 days", "setting": "[4]; 80 mg/kg i.p. 30 min before", "result": 60, "unit": "%"}, {"measurement": "protection against the effects of melphalan", "setting": "[5]", "result": "protected the mice against the effects of melphalan"}, {"measurement": "protection factor at the 50% survival level", "setting": "[5]; varying melphalan doses", "result": "~1.2"}, {"measurement": "SER", "setting": "[6]", "result": 1.0}, {"measurement": "enhancement of hypoxic cytotoxicity of SR 4233", "setting": "[7]; 25 μm SR 4233, 1 mM, hypoxic, 1 hr", "result": "enhance the hypoxic cytotoxicity of SR 4233"}, {"measurement": "enhancement of mitomycin C cytotoxicity", "setting": "[7]; aerobic and hypoxic conditions", "result": "enhanced cytotoxicity under both aerobic and hypoxic conditions"}]}
